ChEMBL document CHEMBL5620370, “1,3-Thiazole derivatives as privileged structures for anti-Trypanosoma cruzi activity: Rational design, synthesis, in silico and in vitro studies” (Eur J Med Chem, 2023)
Activity calls are given as the source filed them. The calls are words filed in the database; no cut-off is given here.

Tests used:
[1] = system: Trypanosoma cruzi; assay: Antitrypanosomal activity against Trypanosoma cruzi Y strain trypomastigotes transfected in African green monkey Vero cells assessed as inhibition of parasite growth incubated for 24 hrs by Neubauer chamber based analysis; format: functional, organism-based
[2] = system: Trypanosoma cruzi; assay: Induction of apoptosis in Trypanosoma cruzi Y strain trypomastigotes assessed as early apoptosis at 1 times IC50 incubated for 24 hrs by Annexin V-FITC/7AAD staining based flow cytometry; format: functional, organism-based
[3] = Selectivity index, ratio of CC50 for cytotoxicity against mouse RAW264.7 cells to IC50 for antitrypanosomal activity against Trypanosoma cruzi Tulahuen amastigotes transfected in L929 cells assessed as inhibition of parasite growth; format: toxicity, cell-based; conditions: read-out: Ratio CC50/IC50
[4] = system: Trypanosoma cruzi; assay: Induction of apoptosis in Trypanosoma cruzi Y strain trypomastigotes assessed as late apoptosis at 131.92 uM incubated for 24 hrs by Annexin V-FITC/7AAD staining based flow cytometry; format: functional, organism-based
[5] = Selectivity index, ratio of CC50 for cytotoxicity against mouse RAW264.7 cells to IC50 for antitrypanosomal activity against Trypanosoma cruzi Y strain trypomastigotes transfected in African green monkey Vero cells assessed as inhibition of parasite growth; format: toxicity, cell-based; conditions: read-out: Ratio CC50/IC50
[6] = system: Trypanosoma cruzi; assay: Induction of DNA damage in Trypanosoma cruzi Y strain trypomastigotes at 1 times IC50 incubated for 24 hrs by acridine orange staining based flow cytometry; format: functional, organism-based
[7] = system: Trypanosoma cruzi; assay: Antitrypanosomal activity against Trypanosoma cruzi Tulahuen amastigotes transfected in L929 cells assessed as inhibition of parasite growth incubated for 96 hrs by CPRG based spectrophotometric analysis; format: functional, organism-based; conditions: L929, 96 h
[8] = system: Trypanosoma cruzi; assay: Induction of apoptosis in Trypanosoma cruzi Y strain trypomastigotes assessed as necrosis at 131.92 uM incubated for 24 hrs by Annexin V-FITC/7AAD staining based flow cytometry; format: functional, organism-based
[9] = Selectivity index, ratio of CC50 for cytotoxicity against mouse RAW264.7 cells to IC50 for antitrypanosomal activity against Trypanosoma cruzi Dm28 epimastigotes assessed as inhibition of parasite growth; format: toxicity, cell-based; conditions: read-out: Ratio CC50/IC50
[10] = system: Trypanosoma cruzi; assay: Induction of apoptosis in Trypanosoma cruzi Y strain trypomastigotes assessed as early apoptosis at 2 times IC50 incubated for 24 hrs by Annexin V-FITC/7AAD staining based flow cytometry; format: functional, organism-based
[11] = system: Trypanosoma cruzi; assay: Induction of mitochondrial membrane potential loss in Trypanosoma cruzi Y strain trypomastigotes at 2 times IC50 incubated for 24 hrs by Rhodamine 123 staining based flow cytometry; format: organism-based
[12] = system: Trypanosoma cruzi; assay: Induction of apoptosis in Trypanosoma cruzi Y strain trypomastigotes assessed as late apoptosis at 1 times IC50 incubated for 24 hrs by Annexin V-FITC/7AAD staining based flow cytometry; format: functional, organism-based
[13] = system: Trypanosoma cruzi; assay: Antitrypanosomal activity against Trypanosoma cruzi Dm28 epimastigotes assessed as inhibition of parasite growth incubated for 96 hrs by Neubauer chamber based analysis; format: functional, organism-based; conditions: Dm28, 96 h
[14] = system: Trypanosoma cruzi; assay: Induction of mitochondrial membrane potential loss in Trypanosoma cruzi Y strain trypomastigotes at 1 times IC50 incubated for 24 hrs by Rhodamine 123 staining based flow cytometry; format: organism-based
[15] = Cytotoxicity against mouse RAW264.7 cells assessed as inhibition of cell growth incubated for 72 hrs by MTT assay; format: toxicity, cell-based
[16] = system: Trypanosoma cruzi; assay: Induction of apoptosis in Trypanosoma cruzi Y strain trypomastigotes assessed as necrosis at 1 times IC50 incubated for 24 hrs by Annexin V-FITC/7AAD staining based flow cytometry; format: functional, organism-based
[17] = system: Trypanosoma cruzi; assay: Induction of DNA damage in Trypanosoma cruzi Y strain trypomastigotes at 2 times IC50 incubated for 24 hrs by acridine orange staining based flow cytometry; format: functional, organism-based
[18] = system: Trypanosoma cruzi; assay: Induction of apoptosis in Trypanosoma cruzi Y strain trypomastigotes assessed as necrosis at 50.9 uM incubated for 24 hrs by Annexin V-FITC/7AAD staining based flow cytometry; format: functional, organism-based
[19] = system: Trypanosoma cruzi; assay: Induction of apoptosis in Trypanosoma cruzi Y strain trypomastigotes assessed as late apoptosis at 50.9 uM incubated for 24 hrs by Annexin V-FITC/7AAD staining based flow cytometry; format: functional, organism-based
[20] = system: Trypanosoma cruzi; assay: Induction of apoptosis in Trypanosoma cruzi Y strain trypomastigotes assessed as fold increase in early apoptosis incubated for 24 hrs by Annexin V-FITC/7AAD staining based flow cytometry; format: functional
[21] = system: Trypanosoma cruzi; assay: Induction of apoptosis in Trypanosoma cruzi Y strain trypomastigotes assessed as fold increase in late apoptosis incubated for 24 hrs by Annexin V-FITC/7AAD staining based flow cytometry; format: functional
[22] = system: Trypanosoma cruzi; assay: Induction of apoptosis in Trypanosoma cruzi Y strain trypomastigotes assessed as late apoptosis at 9.64 uM incubated for 24 hrs by Annexin V-FITC/7AAD staining based flow cytometry; format: functional, organism-based
[23] = system: Trypanosoma cruzi; assay: Induction of apoptosis in Trypanosoma cruzi Y strain trypomastigotes assessed as necrosis at 9.64 uM incubated for 24 hrs by Annexin V-FITC/7AAD staining based flow cytometry; format: functional, organism-based

| Compound | IC50 [1] | IC50 [7] | IC50 [13] | selectivity ratio [3] | selectivity ratio [5] | selectivity ratio [9] | CC50 at 72 h [15] | other results |
| --- | --- | --- | --- | --- | --- | --- | --- | --- |
| C/C(=N\Nc1nc(-c2ccc3ccccc3c2)cs1)c1ccc(Cl)c(Cl)c1Cl | 66 µM | 25.4 µM | 10.9 µM | 3.79 | 1.45 | 8.86 | 96.2 µM | Activity [2]: Active; Activity [4]: Active; Activity [6]: inactive; Activity [8]: Active; Activity [10]: Active; Activity [11]: inactive; Activity [12]: Active; Activity [14]: inactive; Activity [16]: Active; Activity [17]: inactive |
| C/C(=N\Nc1nc(-c2ccc(F)cc2)cs1)c1ccc(Cl)c(Cl)c1Cl | 21.5 µM | 27.9 µM | 19.4 µM | 1.51 | 1.96 | 2.17 | 42.2 µM | Activity [2]: Active; Activity [6]: Active; Activity [10]: Active; Activity [11]: inactive; Activity [12]: Active; Activity [14]: inactive; Activity [16]: Active; Activity [17]: Active |
| C/C(=N\Nc1nc(-c2ccc(Cl)c(Cl)c2)cs1)c1ccc(Cl)c(Cl)c1Cl | 25.4 µM | 25.4 µM | 32.1 µM | 1.76 | 1.76 | 1.39 | 44.9 µM | Activity [2]: Active; Activity [18]: Active; Activity [6]: inactive; Activity [19]: Active; Activity [10]: Active; Activity [11]: Active; Activity [12]: Active; Activity [14]: Active; Activity [16]: Active; Activity [17]: inactive |
| O=C(Cn1ccnc1[N+](=O)[O-])NCc1ccccc1 [BENZNIDAZOLE] | 41 µM | 5.64 µM | 56.9 µM | 7.83 | 1.07 | 0.77 | 44.2 µM | – |
| C/C(=N\NC1NC(=O)CS1)c1ccc(Cl)cc1Cl (stereo unspecified) | 1.12 µM | – | – | – | – | – | – | – |
| C/C(=N\Nc1nc(-c2ccc([N+](=O)[O-])cc2)cs1)c1ccc(Cl)c(Cl)c1Cl | – | 45.3 µM | 28.9 µM | 1.95 | – | 3.05 | 88.5 µM | – |
| C/C(=N\Nc1nc(-c2ccc(Cl)c(Cl)c2)cs1)c1ccc(Cl)cc1Cl | 4.82 µM | 28.3 µM | 6.41 µM | 3.44 | 20.2 | 15.2 | 97.3 µM | Activity [2]: Active; fold change (FC) [20]: 5; fold change (FC) [21]: 4; Activity [22]: Active; Activity [10]: Active; Activity [11]: inactive; Activity [12]: Active; Activity [23]: Active; Activity [14]: inactive; Activity [16]: Active; Activity [17]: Active |

Second part, led by results:

| IC50 [1] | IC50 [7] | IC50 [13] | Compound | selectivity ratio [3] | selectivity ratio [5] | selectivity ratio [9] | CC50 at 72 h [15] | other results |
| --- | --- | --- | --- | --- | --- | --- | --- | --- |
| 3.27 µM | 8.71 µM | 10.6 µM | C/C(=N\Nc1nc(-c2ccc(Cl)cc2)cs1)c1ccc(Cl)c(Cl)c1Cl | 4.55 | 12.1 | 3.73 | 39.6 µM | – |
| 4.08 µM | 13.6 µM | 8.33 µM | C/C(=N\Nc1nc(-c2ccc(Cl)cc2Cl)cs1)c1ccc(Cl)c(Cl)c1Cl | 2.67 | 8.89 | 4.35 | 36.3 µM | – |
| 17.9 µM | 10.6 µM | 7.55 µM | C/C(=N\Nc1nc(-c2ccc(Cl)cc2)cs1)c1ccc(Cl)cc1Cl | 5.21 | 3.07 | 7.3 | 55.1 µM | – |
| 45.9 µM | 21.3 µM | 7.42 µM | C/C(=N\Nc1nc(-c2ccccc2)cs1)c1ccc(Cl)cc1Cl | 2 | 0.93 | 5.76 | 42.8 µM | – |
| 2.64 µM | 12.9 µM | 8.62 µM | C/C(=N\Nc1nc(-c2ccc(-c3ccccc3)cc2)cs1)c1ccc(Cl)c(Cl)c1Cl | 4.83 | 23.6 | 7.22 | 62.2 µM | – |
| 11.5 µM | 20.6 µM | 13.8 µM | C/C(=N\Nc1nc(-c2ccccc2)cs1)c1ccc(Cl)c(Cl)c1Cl | 1.46 | 2.61 | 2.18 | 30.2 µM | – |
| 10.6 µM | 14.9 µM | 20.2 µM | C/C(=N\Nc1nc(-c2ccc(-c3ccccc3)cc2)cs1)c1ccc(Cl)cc1Cl | 5.38 | 7.58 | 3.96 | 80.1 µM | – |
| 45.3 µM | 3.65 µM | 3.48 µM | COc1ccc(-c2csc(N/N=C(\C)c3ccc(Cl)cc3Cl)n2)cc1 | 11.8 | 0.95 | 12.4 | 43.1 µM | Activity [2]: Active; Activity [6]: inactive; Activity [10]: Active; Activity [11]: Active; Activity [12]: Active; Activity [14]: Active; Activity [16]: Active; Activity [17]: inactive |
| 30.9 µM | 7.84 µM | 7.88 µM | COc1ccc(-c2csc(N/N=C(\C)c3ccc(Cl)c(Cl)c3Cl)n2)cc1 | 3.45 | 0.87 | 3.43 | 27.1 µM | – |
| – | 4.46 µM | 8.42 µM | C/C(=N\Nc1nc(-c2cccc([N+](=O)[O-])c2)cs1)c1ccc(Cl)c(Cl)c1Cl | 6.55 | – | 3.47 | 29.2 µM | – |
| – | 5.96 µM | 5.25 µM | C/C(=N\Nc1nc(-c2ccc(Br)cc2)cs1)c1ccc(Cl)c(Cl)c1Cl | 5 | – | 5.68 | 29.9 µM | – |
